Assay results published in patent US4965280A, “Antifungal carbinols” (E. I. Du Pont de Nemours and Company, priority 1989, dated 1990).

Columns and labels:
Experiment in all cases: Test C rice paddy
BARNYARDGRASS = type: in vivo, Echinochloa crusgalli; conditions: Echinochloa crus-galli, 504 h, 21 days, read-out: plant response
Text: (§1) Sixteen cm diameter Airlite plastic pots were partially filled with Tama slit loam soil and the soil saturated with water. Japonica and Indica rice seedlings a the 2.0 to 2.5 leaf stage were transplanted into 1/3 of the pots. Into another third of the pots were transplanted seedling or sprouted tubers of water plantain (Alisma trivale), Scripus (Scirpus paludosus), Cyperus (Cyperus esculentus), and arrowhead (Sagittaria spp.). The remaining pots were planted with barnyardgrass (Echinochloa crusgalli) seeds and sprouted tubes of water chestnut (Eleocharis spp.). These weeds all represent major rice weeds or genera of weeds important in rice. Three to four days after planting, the water level was raised to 3 cm (about 1200 ml/pot) and maintained a this level throughout the test. Chemical treatments were applied directly to the paddy water, within 24 hours of raising the water, after being formulated in a nonphytotoxic solvent. The pots were maintained in the greenhouse.

WATERCHESTNUT = type: in vivo, Eleocharis spp.; conditions: Eleocharis, 504 h, 21 days, read-out: plant response
Text: as §1

ARROWHEAD = type: in vivo, Sagittaria spp.; conditions: Sagittaria, 504 h, 21 days, read-out: plant response
Text: as §1

SCIRPUS = type: in vivo, Scirpus paludosus; conditions: Bolboschoenus maritimus, 504 h, 21 days, read-out: plant response
Text: as §1

WATER PLAINTAIN = type: in vivo, Alisma trivale; conditions: 504 h, 21 days, read-out: plant response
Text: as §1

RICE JAP EFF = type: in vivo, Japonica rice; conditions: Oryza sativa, 504 h, 21 days, read-out: plant response
Text: as §1

RICE INDICA EFF = type: in vivo; conditions: Oryza sativa, 504 h, 21 days, read-out: plant response
Text: as §1

Work on `C=C(c1cccc(F)c1)C(O)(Cn1cncn1)c1ccc(F)cc1F` (centres unmarked) [Example 18] yielded a pest or weed control at 64 g/ha (BARNYARDGRASS; 0064 G/HA) of 0%, a pest or weed control at 125 g/ha (BARNYARDGRASS; 0125 G/HA) of 0% and a pest or weed control at 250 g/ha (BARNYARDGRASS; 0250 G/HA) of 0%. It also gave a pest or weed control at 500 g/ha (BARNYARDGRASS; 0500 G/HA) of 40%, a pest or weed control at 1000 g/ha (BARNYARDGRASS; 1000 G/HA) of 60% and a pest or weed control at 64 g/ha (WATERCHESTNUT; 0064 G/HA) of 0%. The pest or weed control at 125 g/ha (WATERCHESTNUT; 0125 G/HA) was 0%, the pest or weed control at 250 g/ha (WATERCHESTNUT; 0250 G/HA) was 0% and the pest or weed control at 500 g/ha (WATERCHESTNUT; 0500 G/HA) was 40%. The pest or weed control at 1000 g/ha (WATERCHESTNUT; 1000 G/HA) was 50%, the pest or weed control at 64 g/ha (ARROWHEAD; 0064 G/HA) was 0% and the pest or weed control at 125 g/ha (ARROWHEAD; 0125 G/HA) was 0%. The pest or weed control at 250 g/ha (ARROWHEAD; 0250 G/HA) was 0%, the pest or weed control at 500 g/ha (ARROWHEAD; 0500 G/HA) was 20% and the pest or weed control at 1000 g/ha (ARROWHEAD; 1000 G/HA) was 35%. For the same compound, the pest or weed control at 64 g/ha (SCIRPUS; 0064 G/HA) was 0%, the pest or weed control at 125 g/ha (SCIRPUS; 0125 G/HA) was 0% and the pest or weed control at 250 g/ha (SCIRPUS; 0250 G/HA) was 0%. The pest or weed control at 500 g/ha (SCIRPUS; 0500 G/HA) was 0%, the pest or weed control at 1000 g/ha (SCIRPUS; 1000 G/HA) was 0% and the pest or weed control at 64 g/ha (WATER PLAINTAIN; 0064 G/HA) was 0%. For the same compound, the pest or weed control at 125 g/ha (WATER PLAINTAIN; 0125 G/HA) was 0%, the pest or weed control at 250 g/ha (WATER PLAINTAIN; 0250 G/HA) was 0% and the pest or weed control at 500 g/ha (WATER PLAINTAIN; 0500 G/HA) was 20%. It also gave a pest or weed control at 1000 g/ha (WATER PLAINTAIN; 1000 G/HA) of 40%, a pest or weed control at 64 g/ha (RICE JAP EFF; 0064 G/HA) of 0% and a pest or weed control at 125 g/ha (RICE JAP EFF; 0125 G/HA) of 0%. It also gave a pest or weed control at 250 g/ha (RICE JAP EFF; 0250 G/HA) of 0%, a pest or weed control at 500 g/ha (RICE JAP EFF; 0500 G/HA) of 50% and a pest or weed control at 1000 g/ha (RICE JAP EFF; 1000 G/HA) of 70%. The pest or weed control at 64 g/ha (RICE INDICA EFF; 0064 G/HA) was 0%, the pest or weed control at 125 g/ha (RICE INDICA EFF; 0125 G/HA) was 0% and the pest or weed control at 250 g/ha (RICE INDICA EFF; 0250 G/HA) was 0%. It also gave a pest or weed control at 500 g/ha (RICE INDICA EFF; 0500 G/HA) of 30% and a pest or weed control at 1000 g/ha (RICE INDICA EFF; 1000 G/HA) of 50%.
